Experimental data taken from ChEMBL document CHEMBL1154844, “An antimycobacterial cyclodepsipeptide from the entomopathogenic fungus Ophiocordyceps communis BCC 16475” (J Nat Prod, 2010).
Converted amounts (≈) assume the structure as drawn. The source made the active and inactive calls. The calls are words filed in the database; no cut-off is given here.

Experiments:
[1] = test system: Mycobacterium tuberculosis; assay: Antibacterial activity against Mycobacterium tuberculosis H37Ra by Green fluorescent protein microplate assay; assay type: functional
Plasmodium falciparum = assay: Antimalarial activity against Plasmodium falciparum K1; assay type: functional, organism-based
Candida albicans = assay: Antifungal activity against Candida albicans; assay type: functional, organism-based
Pyricularia grisea = assay: Antifungal activity against Magnaporthe grisea; assay type: functional, organism-based
KB [2] = assay: Cytotoxicity against human KB cells by resazurin microplate assay; assay type: functional, cell-based
MCF7 [3] = assay: Cytotoxicity against human MCF7 cells at 88 uM by resazurin microplate assay; assay type: functional, cell-based
NCI-H187 [4] = assay: Cytotoxicity against human NCI-H187 cells at 88 uM by resazurin microplate assay; assay type: functional, cell-based
Vero [5] = assay: Cytotoxicity against african green monkey Vero cells at 88 uM by Green fluorescent protein microplate assay; assay type: cell-based; settings: chlorocebus sabaeus
KB [6] = assay: Cytotoxicity against human KB cells at 178 uM by resazurin microplate assay; assay type: functional, cell-based
NCI-H187 [7] = assay: Cytotoxicity against human NCI-H187 cells at 178 uM by resazurin microplate assay; assay type: functional, cell-based
Vero [8] = assay: Cytotoxicity against african green monkey Vero cells at 178 uM by Green fluorescent protein microplate assay; assay type: cell-based; settings: chlorocebus sabaeus
MCF7 [9] = assay: Cytotoxicity against human MCF7 cells by resazurin microplate assay; assay type: functional, cell-based
Venturia inaequalis = assay: Antifungal activity against Venturia inaequalis; assay type: functional
Bipolaris oryzae = assay: Antifungal activity against Cochliobolus miyabeanus; assay type: functional
[10] = test system: Monilinia mali (Monilinia mali); assay: Antifungal activity against Monilinia mali

Row | Compound | MIC (Plasmodium falciparum) | MIC (Candida albicans) | MIC (Pyricularia grisea) | IC50 (KB [2]) | Activity (MCF7 [3]) | Activity (NCI-H187 [4]) | Activity (Vero [5]) | Activity (KB [6]) | Activity (NCI-H187 [7]) | Activity (Vero [8]) | MIC (Venturia inaequalis) | MIC (Bipolaris oryzae) | MIC [10] | also measured
1 | CCCCCCCCCC1CCCC(=O)N[C@H]([C@@H](C)O)C(=O)N[C@@H](C)C(=O)N[C@@H](C)C(=O)N[C@@H](CCC(N)=O)C(=O)N[C@@H](Cc2ccc(O)cc2)C(=O)N[C@@H](C(C)C)C(=O)O1 (stereo partly specified) [CORDYCOMMUNIN] | inactive | inactive | inactive | 45 µM | inactive | inactive | Not Active | – | – | – | – | – | – | MIC [1]: 15 µM (≈ 12.9 µg/mL)
2 | CCC[C@H](O)C[C@@H]1Cc2cc(OC)cc(OC)c2C(=O)O1 | inactive | inactive | inactive | 45 µM | inactive | inactive | Not Active | inactive | inactive | Not Active | – | – | – | Activity [1]: inactive; Activity (MCF7 [9]): inactive
3 | CCC[C@H](O)C[C@@H]1Cc2cc(OC)cc(O)c2C(=O)O1 | – | – | – | – | – | – | – | inactive | inactive | Not Active | – | – | – | IC50 (MCF7 [3]): 62 µM; IC50 (MCF7 [9]): 62 µM
4 | CCCCCCCCCC[C@@H](C)[C@@H]1CC(=O)N[C@H]([C@@H](C)O)C(=O)N[C@@H](C)C(=O)N[C@H](C)C(=O)N[C@@H](CCC(N)=O)C(=O)N[C@H](Cc2ccc(O)cc2)C(=O)N[C@@H]([C@@H](C)CC)C(=O)O1 | – | – | – | – | – | – | – | – | – | – | 1 µg/mL (≈ 1.13 µM) | 1 µg/mL (≈ 1.13 µM) | 1 µg/mL (≈ 1.13 µM) | –
5 | CCCCCCCCCC[C@@H](C)[C@@H]1CC(=O)N[C@H]([C@@H](C)O)C(=O)N[C@@H](C)C(=O)N[C@H](C)C(=O)N[C@@H](CCC(N)=O)C(=O)N[C@H](Cc2ccc(O)cc2)C(=O)N[C@@H](C(C)C)C(=O)O1 [WA 493 A] | – | – | – | – | – | – | – | – | – | – | 1 µg/mL (≈ 1.14 µM) | 1 µg/mL (≈ 1.14 µM) | 1 µg/mL (≈ 1.14 µM) | –
